Data published in ChEMBL document CHEMBL5584240, “Evaluation of potency and metabolic stability of diphyllin-derived Vacuolar-ATPase inhibitors” (Eur J Med Chem, 2024).
Calls of active or inactive are those of the source. The rule behind the calls is not given here.

Assays:
[1] = system: HEK293; assay: Cytotoxicity against HEK293 cells incubated for 72 hrs by MTT assay; format: toxicity, cell-based; settings: human, hek293, 72 h
[2] = system: Ebolavirus; assay: Antiviral activity against recombinant Ebola virus Mayinga expressing GFP infected in human HeLa cells with ATP6V0a2 KO assessed as reduction in viral entry into cells pretreated for 1 hr followed by viral infection measured after 24 to 48 hrs by imaging analysis; format: functional, organism-based; settings: Orthoebolavirus
[3] = Selectivity index, ratio of CC50 for HEK293 cells to EC50 for recombinant Ebola virus Mayinga expressing GFP infected in human HeLa cells with ATP6V0a2 KO; format: toxicity, cell-based; settings: read-out: Ratio CC50/EC50
[4] = biological target: Voltage-gated inwardly rectifying potassium channel KCNH2 (Homo sapiens, UniProt Q12809); assay: Inhibition of hERG at 10 uM relative to control; format: toxicity
Voltage-gated inwardly rectifying potassium channel KCNH2, sequence (Q12809 whole entry): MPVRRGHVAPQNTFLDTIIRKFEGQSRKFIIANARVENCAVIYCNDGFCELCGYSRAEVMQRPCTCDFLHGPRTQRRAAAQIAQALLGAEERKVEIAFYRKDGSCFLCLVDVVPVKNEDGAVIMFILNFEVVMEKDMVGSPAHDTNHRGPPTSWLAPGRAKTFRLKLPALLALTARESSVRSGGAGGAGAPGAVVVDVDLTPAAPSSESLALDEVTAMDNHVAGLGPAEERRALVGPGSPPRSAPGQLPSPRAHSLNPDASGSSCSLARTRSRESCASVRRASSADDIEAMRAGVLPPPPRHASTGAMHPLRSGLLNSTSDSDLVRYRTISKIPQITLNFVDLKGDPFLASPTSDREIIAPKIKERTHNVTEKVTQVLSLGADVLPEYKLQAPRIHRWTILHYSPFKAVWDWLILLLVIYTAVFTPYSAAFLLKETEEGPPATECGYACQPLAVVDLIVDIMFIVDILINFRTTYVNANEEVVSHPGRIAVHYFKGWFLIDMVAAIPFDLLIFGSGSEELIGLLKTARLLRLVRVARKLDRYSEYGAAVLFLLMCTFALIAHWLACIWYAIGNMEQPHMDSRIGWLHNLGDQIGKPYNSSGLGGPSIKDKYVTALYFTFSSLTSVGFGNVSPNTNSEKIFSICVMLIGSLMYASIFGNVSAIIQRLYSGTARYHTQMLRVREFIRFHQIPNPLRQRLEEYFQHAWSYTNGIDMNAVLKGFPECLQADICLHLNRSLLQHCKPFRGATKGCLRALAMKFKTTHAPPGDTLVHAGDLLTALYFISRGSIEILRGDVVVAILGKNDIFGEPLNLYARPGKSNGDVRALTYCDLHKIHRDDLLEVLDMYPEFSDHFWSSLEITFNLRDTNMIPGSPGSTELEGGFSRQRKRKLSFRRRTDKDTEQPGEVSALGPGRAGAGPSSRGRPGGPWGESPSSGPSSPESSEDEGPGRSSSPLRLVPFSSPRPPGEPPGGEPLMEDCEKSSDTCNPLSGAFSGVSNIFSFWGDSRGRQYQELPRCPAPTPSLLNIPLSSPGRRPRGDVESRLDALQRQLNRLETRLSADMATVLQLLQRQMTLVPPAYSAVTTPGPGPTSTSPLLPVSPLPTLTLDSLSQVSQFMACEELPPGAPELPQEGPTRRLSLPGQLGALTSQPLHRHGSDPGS

[5] = MRT in CD-1 mouse at 50 mg/kg, po by LC-MS/MS analysis; format: ADME, organism-based; settings: in vivo
[6] = AUC (infinity) in CD-1 mouse at 50 mg/kg, po by LC-MS/MS analysis; format: ADME, organism-based; settings: in vivo
[7] = Half life in CD-1 mouse at 50 mg/kg, po by LC-MS/MS analysis; format: ADME, organism-based; settings: in vivo
[8] = Apparent oral clearance in CD-1 mouse at 50 mg/kg, po by LC-MS/MS analysis; format: ADME, organism-based; settings: in vivo
[9] = AUC (0.25 to 24 hrs) in CD-1 mouse at 50 mg/kg, po by LC-MS/MS analysis; format: ADME, organism-based; settings: in vivo
[10] = Apparent volume of distribution during terminal phase in CD-1 mouse at 50 mg/kg, po by LC-MS/MS analysis; format: ADME, organism-based; settings: in vivo, read-out: Vz/F
[11] = Tmax in CD-1 mouse at 50 mg/kg, po by LC-MS/MS analysis; format: ADME, organism-based; settings: in vivo
[12] = Cmax in CD-1 mouse at 50 mg/kg, po by LC-MS/MS analysis; format: ADME, organism-based; settings: in vivo
[13] = Selectivity index, ratio of CC50 for human primary macrophages to EC50 for recombinant Ebola virus Mayinga expressing GFP infected in human primary macrophages; format: toxicity; settings: read-out: Ratio CC50/EC50
[14] = system: Ebolavirus; assay: Antiviral activity against recombinant Ebola virus Mayinga expressing GFP infected in human primary macrophages assessed as reduction in infectivity pretreated for 1 hr followed by viral infection measured after 24 to 48 hrs by imaging analysis; format: functional, organism-based; settings: Orthoebolavirus, Primary macrophage
[15] = system: A549; assay: Induction of phospholipidosis in NBD-PE-treated human A549 cells at 1 uM incubated for 24 hrs by imaging based analysis; format: functional, cell-based
[16] = system: A549; assay: Induction of phospholipidosis in NBD-PE-treated human A549 cells at 5 to 10 uM incubated for 24 hrs by imaging based analysis; format: functional, cell-based; settings: dose 5-10 µM

SMILES | CC50 [1] [nM] | EC50 [2] [nM] | selectivity ratio [3] | inhibition (INH) [4] [%] | also measured
COc1cc2c(OCCCN3CCN(S(C)(=O)=O)CC3)c3c(c(-c4ccc5c(c4)OCO5)c2cc1OC)C(=O)OC3 | > 80000 | 35 | > 550 | 16 | –
COc1cc2c(OC3CCNC3)c3c(c(-c4ccc5c(c4)OCO5)c2cc1OC)C(=O)OC3 (stereo unspecified) | > 80000 | 86 | 300 | 97 | –
COc1cc2c(OCCCN3CCN(C)CC3)c3c(c(-c4ccc5c(c4)OCO5)c2cc1OC)C(=O)OC3 | 12000 | 7 | > 630 | 75 | –
COc1cc2c(OCCCC#N)c3c(c(-c4ccc5c(c4)OCO5)c2cc1OC)C(=O)OC3 | > 80000 | 37 | 130 | 24 | MRT [5]: 5.9 h; AUC [6]: 7.191 µM·h; t1/2 [7]: 6.4 h; CL/F [8]: 5.18 mL/min; AUC(0-t) [9]: 6.86 µM·h; Vd/F [10]: 2.85 L; Tmax [11]: 0.5 h; Cmax [12]: 3560 nM
COc1cc2c(OCCN3CCN(C)CC3)c3c(c(-c4ccc5c(c4)OCO5)c2cc1OC)C(=O)OC3 | > 80000 | 36 | 300 | 79 | selectivity ratio [13]: 170; EC50 [14]: 30 nM
COc1cc2c(O[C@@H]3O[C@H](C)[C@@H](O)[C@H](O)[C@H]3O)c3c(c(-c4ccc5c(c4)OCO5)c2cc1OC)C(=O)OC3 [PATENTIFLORIN A] | > 80000 | 428 | > 59 | < 5 | selectivity ratio [13]: 295; Tmax [11]: 0.25 h; Cmax [12]: 101 nM; EC50 [14]: 85 nM
COc1cc2c(OC3CCOC3)c3c(c(-c4ccc5c(c4)OCO5)c2cc1OC)C(=O)OC3 (stereo unspecified) | > 80000 | 40 | 87 | 30 | MRT [5]: 18 h; AUC [6]: 16.455 µM·h; t1/2 [7]: 13.5 h; CL/F [8]: 2.25 mL/min; AUC(0-t) [9]: 12 µM·h; selectivity ratio [13]: 132; Vd/F [10]: 2.63 L; Tmax [11]: 0.5 h; Cmax [12]: 1250 nM; EC50 [14]: 107 nM
COc1cc2c(OCCCN3CC4CCC(C3)N4C)c3c(c(-c4ccc5c(c4)OCO5)c2cc1OC)C(=O)OC3 | > 80000 | 10 | > 3400 | 100 | selectivity ratio [13]: 577; EC50 [14]: 10 nM
COc1cc2c(OCCCN3CC4CC3CN4C)c3c(c(-c4ccc5c(c4)OCO5)c2cc1OC)C(=O)OC3 (stereo unspecified) | > 80000 | 116 | > 210 | 72 | –
CO/C1=C\C(C)=C\[C@@H](C)[C@@H](O)[C@@H](C)C/C(C)=C/C=C/[C@H](OC)[C@@H]([C@@H](C)[C@@H](O)[C@H](C)[C@@]2(O)C[C@@H](O)[C@H](C)[C@@H](C(C)C)O2)OC1=O [BAFILOMYCIN A1] | 37000 | 3 | 470 | – | –
COc1cc2c(OC3COC3)c3c(c(-c4ccc5c(c4)OCO5)c2cc1OC)C(=O)OC3 | 72000 | 318 | > 79 | 15 | –
COC(=O)N1CCN(CC(O)COc2c3c(c(-c4ccc5c(c4)OCO5)c4cc(OC)c(OC)cc24)C(=O)OC3)CC1 (stereo unspecified) | > 80000 | 41 | > 740 | 23 | –
COc1cc2c(OCC(O)CN3CC4CCC(C3)N4C)c3c(c(-c4ccc5c(c4)OCO5)c2cc1OC)C(=O)OC3 (stereo unspecified) | > 80000 | 7 | 2000 | 99 | –
COc1cc2c(OCCCN3CCN(C=O)CC3)c3c(c(-c4ccc5c(c4)OCO5)c2cc1OC)C(=O)OC3 | > 80000 | 31 | > 610 | 34 | –
COc1cc2c(OCCCN3CCN(C(C)=O)CC3)c3c(c(-c4ccc5c(c4)OCO5)c2cc1OC)C(=O)OC3 | > 80000 | 42 | > 590 | 11 | –
COc1cc2c(OCCCN3[C@@H]4CC[C@H]3CN(C)C4)c3c(c(-c4ccc5c(c4)OCO5)c2cc1OC)C(=O)OC3 | 71000 | 18 | > 940 | 72 | selectivity ratio [13]: 313; EC50 [14]: 25 nM
COc1cc2c(OCCCN3CC4CCC3CO4)c3c(c(-c4ccc5c(c4)OCO5)c2cc1OC)C(=O)OC3 (stereo unspecified) | 80000 | 28 | > 1200 | 54 | selectivity ratio [13]: 319; EC50 [14]: 19 nM
COc1cc2c(OCC(O)CN3CCOCC3)c3c(c(-c4ccc5c(c4)OCO5)c2cc1OC)C(=O)OC3 (stereo unspecified) | > 80000 | 157 | > 160 | 16 | –

SMILES | CC50 [1] [nM] | EC50 [2] [nM] | selectivity ratio [3] | inhibition (INH) [4] [%] | also measured
COCCN1CCN(CC(O)COc2c3c(c(-c4ccc5c(c4)OCO5)c4cc(OC)c(OC)cc24)C(=O)OC3)CC1 (stereo unspecified) | – | 44 | > 580 | 51 | –
COc1cc2c(OCCN3CCOCC3)c3c(c(-c4ccc5c(c4)OCO5)c2cc1OC)C(=O)OC3 | > 80000 | 651 | > 38 | – | –
COc1cc2c(OC3CCNCC3)c3c(c(-c4ccc5c(c4)OCO5)c2cc1OC)C(=O)OC3 | > 80000 | 32 | 510 | 80 | MRT [5]: 113 h; AUC [6]: 2.532 µM·h; t1/2 [7]: 86.2 h; CL/F [8]: 14.1 mL/min; AUC(0-t) [9]: 0.636 µM·h; Vd/F [10]: 105 L; Tmax [11]: 2 h; Cmax [12]: 151 nM
COc1cc2c(OCC(O)CN3CCN(C)CC3)c3c(c(-c4ccc5c(c4)OCO5)c2cc1OC)C(=O)OC3 (stereo unspecified) | > 80000 | 54 | > 420 | 36 | selectivity ratio [13]: > 753; EC50 [14]: 33 nM
COc1cc2c(OCCCN3CC4CCC3CN4C)c3c(c(-c4ccc5c(c4)OCO5)c2cc1OC)C(=O)OC3 (stereo unspecified) | 54000 | 26 | > 1020 | 90 | selectivity ratio [13]: 3240; EC50 [14]: 2 nM
COc1cc2c(OC3CNC3)c3c(c(-c4ccc5c(c4)OCO5)c2cc1OC)C(=O)OC3 | > 80000 | 214 | > 150 | 89 | –
COc1cc2c(OCCCN3CCNC(=O)C3)c3c(c(-c4ccc5c(c4)OCO5)c2cc1OC)C(=O)OC3 | > 80000 | 441 | – | 5 | –
COC(=O)N1CCN(CCCOc2c3c(c(-c4ccc5c(c4)OCO5)c4cc(OC)c(OC)cc24)C(=O)OC3)CC1 | > 80000 | 22 | > 110 | 30 | –
COc1cc2c(OCCCN3CCN(C)C(=O)C3)c3c(c(-c4ccc5c(c4)OCO5)c2cc1OC)C(=O)OC3 | > 80000 | 74 | > 340 | 9 | selectivity ratio [13]: > 150; Activity [15]: inactive; EC50 [14]: 167 nM
CCCCc1oc2ccccc2c1C(=O)c1cc(I)c(OCCN(CC)CC)c(I)c1 | – | – | – | – | Activity [16]: Active
COc1cc2c(OCCCN3CCS(=O)(=O)CC3)c3c(c(-c4ccc5c(c4)OCO5)c2cc1OC)C(=O)OC3 | > 80000 | 117 | > 240 | 21 | selectivity ratio [13]: 138; Activity [15]: inactive; EC50 [14]: 180 nM
COc1cc2c(OCC#N)c3c(c(-c4ccc5c(c4)OCO5)c2cc1OC)C(=O)OC3 | > 80000 | 182 | > 140 | 6 | –
COc1cc2c(OCCCN3CCOCC3)c3c(c(-c4ccc5c(c4)OCO5)c2cc1OC)C(=O)OC3 | > 80000 | 95 | > 230 | 11 | –
COc1cc2c(OCCCN3CC4CCC(C3)O4)c3c(c(-c4ccc5c(c4)OCO5)c2cc1OC)C(=O)OC3 | > 80000 | 127 | > 190 | 22 | –
COc1cc2c(OC3CCOCC3)c3c(c(-c4ccc5c(c4)OCO5)c2cc1OC)C(=O)OC3 | > 80000 | 124 | 43 | 36 | –
COc1cc2c(OCCCN3[C@@H]4CC[C@H]3COC4)c3c(c(-c4ccc5c(c4)OCO5)c2cc1OC)C(=O)OC3 | > 80000 | 143 | > 190 | 76 | –
COc1cc2c(OCCCN3CC4CC3CO4)c3c(c(-c4ccc5c(c4)OCO5)c2cc1OC)C(=O)OC3 (stereo unspecified) | 52000 | 48 | > 660 | 73 | –
